Test results published in the supplement of paper PMC10627819.

How the values were obtained:
Experiment in all cases: fitness (endpoint OD595 vs no drug) (fraction); higher = more growth
B. subtilis 168 = test system: B. subtilis 168
Method in brief: (§1)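 Cultures at OD595 0.01 were dispensed into 384-well plates in TSB, LB Lennox or CY and incubated at 37 °C. Every 30 min for 14 h, OD595 was read and corrected by the first reading. Fitness is the optical density at entry into stationary phase relative to the robust mean of no-drug control wells, capped at 1.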

S. aureus DSM 20231 = test system: S. aureus DSM 20231
Method in brief: as §1

S. aureus Newman = test system: S. aureus Newman
Method in brief: as §1

S. pneumoniae D39V = test system: S. pneumoniae D39V
Method in brief: as §1

N[C@@H]1CONC1=O [Cycloserine D] + CC(=O)NC[C@H]1CN(c2ccc(N3CCOCC3)c(F)c2)C(=O)O1 [Linezolid]
fitness, one replicate
Conditions	first compound 0.125 µg/mL	first compound 0.25 µg/mL	first compound 0.375 µg/mL	first compound 0.5 µg/mL	first compound 0.75 µg/mL	first compound 1.5 µg/mL
B. subtilis 168, partner 0.0625 µg/mL	0.943	0.866	–	0.846	–	–
S. aureus DSM 20231, partner 1 µg/mL	–	–	0.0372	–	0.0417	0.0279

fitness
Conditions	first compound 0.125 µg/mL	first compound 0.25 µg/mL	first compound 0.375 µg/mL	first compound 0.5 µg/mL	first compound 0.75 µg/mL	first compound 1.5 µg/mL
B. subtilis 168, partner 0.125 µg/mL	0.566	0.574	–	0.562	–	–
B. subtilis 168, partner 0.25 µg/mL	0.135	0.115	–	0.13	–	–
B. subtilis 168, partner 0.5 µg/mL	0.0466	0.0569	–	0.0486	–	–
S. aureus DSM 20231, partner 0.125 µg/mL	–	–	0.913	–	0.837	0.885
S. aureus DSM 20231, partner 0.25 µg/mL	–	–	0.517	–	0.597	0.537
S. aureus DSM 20231, partner 0.5 µg/mL	–	–	0.162	–	0.168	0.162

CCC[C@@H]1C[C@@H](C(=O)N[C@@H]([C@H]2O[C@H](SC)[C@H](O)[C@@H](O)[C@H]2O)[C@H](C)Cl)N(C)C1 [Clindamycin] + CO/N=C(\C(=O)N[C@@H]1C(=O)N2C(C(=O)O)=C(COC(N)=O)CS[C@H]12)c1ccco1 [Cefuroxime]
one replicate
Conditions	fitness
B. subtilis 168, first compound 0.0039 µg/mL, partner 0.195 µg/mL	0.442
B. subtilis 168, first compound 0.0039 µg/mL, partner 0.39 µg/mL	0.397
B. subtilis 168, first compound 0.0039 µg/mL, partner 0.78 µg/mL	0.389
B. subtilis 168, first compound 0.0078 µg/mL, partner 0.195 µg/mL	0.438
B. subtilis 168, first compound 0.0078 µg/mL, partner 0.39 µg/mL	0.367
B. subtilis 168, first compound 0.0078 µg/mL, partner 0.78 µg/mL	0.392
B. subtilis 168, first compound 0.0156 µg/mL, partner 0.195 µg/mL	0.366
B. subtilis 168, first compound 0.0156 µg/mL, partner 0.39 µg/mL	0.326
B. subtilis 168, first compound 0.0156 µg/mL, partner 0.78 µg/mL	0.28
B. subtilis 168, first compound 0.0625 µg/mL, partner 1.562 µg/mL	0.135
B. subtilis 168, first compound 0.0625 µg/mL, partner 3.125 µg/mL	0.0691
B. subtilis 168, first compound 0.0625 µg/mL, partner 6.25 µg/mL	0.0572
B. subtilis 168, first compound 0.125 µg/mL, partner 1.562 µg/mL	0.0526
B. subtilis 168, first compound 0.125 µg/mL, partner 3.125 µg/mL	0.031
B. subtilis 168, first compound 0.125 µg/mL, partner 6.25 µg/mL	0.0267
B. subtilis 168, first compound 0.25 µg/mL, partner 1.562 µg/mL	0.0448
B. subtilis 168, first compound 0.25 µg/mL, partner 3.125 µg/mL	0.028
B. subtilis 168, first compound 0.25 µg/mL, partner 6.25 µg/mL	0.0276
S. aureus Newman, first compound 0.0312 µg/mL, partner 0.04875 µg/mL	0.764
S. aureus Newman, first compound 0.0312 µg/mL, partner 0.0975 µg/mL	0.681
S. aureus Newman, first compound 0.0312 µg/mL, partner 0.195 µg/mL	0.718
S. aureus Newman, first compound 0.0625 µg/mL, partner 0.04875 µg/mL	0.358
S. aureus Newman, first compound 0.0625 µg/mL, partner 0.0975 µg/mL	0.304
S. aureus Newman, first compound 0.0625 µg/mL, partner 0.195 µg/mL	0.21
S. aureus Newman, first compound 0.125 µg/mL, partner 0.04875 µg/mL	0.111
S. aureus Newman, first compound 0.125 µg/mL, partner 0.0975 µg/mL	0.0924
S. aureus Newman, first compound 0.125 µg/mL, partner 0.195 µg/mL	0.078

fitness, B. subtilis 168
Conditions	first compound 0.0625 µg/mL	first compound 0.125 µg/mL	first compound 0.25 µg/mL
partner 0.04875 µg/mL	0.396	0.401	0.218
partner 0.0975 µg/mL	0.306	0.241	0.195
partner 0.195 µg/mL	0.39	0.217	0.217

N[C@@H]1CONC1=O [Cycloserine D] + CN[C@@H]1[C@H](O[C@H]2[C@H](O[C@H]3[C@H](O)[C@@H](O)[C@H](N=C(N)N)[C@@H](O)[C@@H]3N=C(N)N)O[C@@H](C)[C@]2(O)C=O)O[C@@H](CO)[C@H](O)[C@H]1O [Streptomycin]
fitness
Conditions	first compound 0.125 µg/mL	first compound 0.25 µg/mL	first compound 0.375 µg/mL	first compound 0.5 µg/mL	first compound 0.75 µg/mL	first compound 1.5 µg/mL
B. subtilis 168, partner 2 µg/mL	0.931	0.937	–	0.982	–	–
B. subtilis 168, partner 8 µg/mL	0.0826	0.0554	–	0.074	–	–
S. aureus Newman, partner 1 µg/mL	–	–	0.984	–	0.985	0.978
S. aureus Newman, partner 2 µg/mL	–	–	0.976	–	0.93	0.941

C/C(=C\C(=O)OCCCCCCCCC(=O)O)C[C@@H]1OC[C@H](C[C@@H]2O[C@H]2[C@@H](C)[C@H](C)O)[C@@H](O)[C@H]1O [Pseudomonic acid] + COc1c(N2C[C@@H]3CCCN[C@@H]3C2)c(F)cc2c(=O)c(C(=O)O)cn(C3CC3)c12 [Moxifloxacin]
fitness, S. aureus Newman, one replicate
Conditions	first compound 0.0313 µg/mL	first compound 0.0625 µg/mL	first compound 0.125 µg/mL
partner 0.0075 µg/mL	0.0642	0.025	0.0349
partner 0.015 µg/mL	0.0514	0.0242	0.0408
partner 0.03 µg/mL	0.0387	0.0144	0.0169

fitness, S. pneumoniae D39V
Conditions	partner 0.0037 µg/mL	partner 0.005 µg/mL	partner 0.0075 µg/mL	partner 0.01 µg/mL	partner 0.015 µg/mL	partner 0.02 µg/mL
first compound 0.03 µg/mL	0.635	0.929	0.839	0.975	0.806	0.982
first compound 0.06 µg/mL	0.49	0.834	0.715	0.876	0.692	0.869
first compound 0.12 µg/mL	0.357	0.609	0.534	0.662	0.539	0.671

COc1cc(Cc2cnc(N)nc2N)cc(OC)c1OC [Trimethoprim] + Cn1nnc(-c2ccc(-c3ccc(N4C[C@H](CO)OC4=O)cc3F)cn2)n1 [Tedizolid]
S. aureus DSM 20231, first compound 0.125 µg/mL, one replicate
Conditions	fitness
partner 0.0625 µg/mL	0.846
partner 0.125 µg/mL	0.575
partner 0.25 µg/mL	0.289

fitness, S. aureus DSM 20231
Conditions	first compound 0.25 µg/mL	first compound 0.5 µg/mL	first compound 1 µg/mL
partner 0.0625 µg/mL	0.623	–	0.0355
partner 0.125 µg/mL	0.689	0.519	0.0418
partner 0.25 µg/mL	0.502	0.39	0.192

N[C@@H]1CONC1=O [Cycloserine D] + CC1=C(C(=O)O)N2C(=O)[C@@H](NC(=O)[C@H](N)c3ccccc3)[C@H]2SC1 [Cephalexin]
fitness
Conditions	first compound 0.125 µg/mL	first compound 0.25 µg/mL	first compound 0.375 µg/mL	first compound 0.5 µg/mL	first compound 0.75 µg/mL	first compound 1.5 µg/mL
B. subtilis 168, partner 0.125 µg/mL	0.865	0.894	–	0.848	–	–
B. subtilis 168, partner 0.25 µg/mL	0.909	0.857	–	0.921	–	–
B. subtilis 168, partner 0.5 µg/mL	0.911	0.88	–	0.867	–	–
S. aureus Newman, partner 0.25 µg/mL	–	–	0.948	–	0.955	0.926
S. aureus Newman, partner 0.5 µg/mL	–	–	0.972	–	≥ 1	0.971
S. aureus Newman, partner 1 µg/mL	–	–	0.992	–	≥ 1	0.995

B. subtilis 168, partner 1 µg/mL, one replicate
Conditions	fitness
first compound 0.125 µg/mL	≥ 1
first compound 0.25 µg/mL	0.91
first compound 0.5 µg/mL	0.985
